These results are taken from patent publication US10077261B2, “Imidazolin-5-one derivative useful as FASN inhibitors for the treatment of cancer” (Janssen Pharmaceutica NV, priority 2012, dated 2018).

The assay deals with T1, hFASN enzyme (full length) (Homo sapiens, UniProt P49327).
T1 construct: 10 μL hFASN enzyme (full length, 300 ng, purified in house); made in house
As to the kind of experiment: Fatty Acid Synthase (FASN) inhibition scintillation proximity assay. Format: biochemical. The settings on record: for inhibition at 10 µM: read-out: Human FASN % inhibition @ 10 μM, 10 μM test compound; for IC50: read-out: Human FASN pIC50 (converted). Here is the method:
In this assay, inhibition of FASN activity is measured using ^3H-acetyl-CoA and malonyl-CoA as substrates. ^3H-Acetyl CoA is converted to ^3H-palmitate through a series of reactions by the FASN protein, which contains 7 functional domains and carries out 7 enzymatic reactions to ultimately produce ^3H-palmitate. The assay principle is based upon the fact that ^3H-acetyl-CoA is hydrophilic and the end product, ^3H-palmitate is hydrophobic.
10 μL assay buffer (100 mM KH2PO4 pH 7.5, 1 mM DTT) (20 μL in blanks) was added to a 384-well white optiplate plate (Perkin Elmer). 0.9 μL test compound (at concentrations of 30 μM, 10 μM, 3 μM, 1 μM, 0.30 μM, 0.10 μM, 0.03 μM and 0.01 μM)/DMSO and 10 μL hFASN enzyme (full length, 300 ng, purified in house) or 10 μL assay buffer was added to the wells. […] The reaction was stopped by adding 20 μL Streptavidin coupled imaging beads (25 mg/ml). After incubation for 30 minutes at room temperature in the dark, the 384 well plate was centrifuged at 1500 rpm for 3 minutes and was measured after at least 24 hrs by the LEADseeker™, measuring emission using a 610±20 nm pass filter.
where mLC and mHC were the means of the low control wells and high control wells on the plate, after manual exclusion of outliers. A plot of Controlmin versus test compound concentration was fitted to a 4-parameter logistic curve using a non-linear least squares regression method.
In general terms: Scintillation proximity formats need no separation of bound from free tracer.

SMILES strings stand for the structures.

T1 sequence (P49327 whole entry): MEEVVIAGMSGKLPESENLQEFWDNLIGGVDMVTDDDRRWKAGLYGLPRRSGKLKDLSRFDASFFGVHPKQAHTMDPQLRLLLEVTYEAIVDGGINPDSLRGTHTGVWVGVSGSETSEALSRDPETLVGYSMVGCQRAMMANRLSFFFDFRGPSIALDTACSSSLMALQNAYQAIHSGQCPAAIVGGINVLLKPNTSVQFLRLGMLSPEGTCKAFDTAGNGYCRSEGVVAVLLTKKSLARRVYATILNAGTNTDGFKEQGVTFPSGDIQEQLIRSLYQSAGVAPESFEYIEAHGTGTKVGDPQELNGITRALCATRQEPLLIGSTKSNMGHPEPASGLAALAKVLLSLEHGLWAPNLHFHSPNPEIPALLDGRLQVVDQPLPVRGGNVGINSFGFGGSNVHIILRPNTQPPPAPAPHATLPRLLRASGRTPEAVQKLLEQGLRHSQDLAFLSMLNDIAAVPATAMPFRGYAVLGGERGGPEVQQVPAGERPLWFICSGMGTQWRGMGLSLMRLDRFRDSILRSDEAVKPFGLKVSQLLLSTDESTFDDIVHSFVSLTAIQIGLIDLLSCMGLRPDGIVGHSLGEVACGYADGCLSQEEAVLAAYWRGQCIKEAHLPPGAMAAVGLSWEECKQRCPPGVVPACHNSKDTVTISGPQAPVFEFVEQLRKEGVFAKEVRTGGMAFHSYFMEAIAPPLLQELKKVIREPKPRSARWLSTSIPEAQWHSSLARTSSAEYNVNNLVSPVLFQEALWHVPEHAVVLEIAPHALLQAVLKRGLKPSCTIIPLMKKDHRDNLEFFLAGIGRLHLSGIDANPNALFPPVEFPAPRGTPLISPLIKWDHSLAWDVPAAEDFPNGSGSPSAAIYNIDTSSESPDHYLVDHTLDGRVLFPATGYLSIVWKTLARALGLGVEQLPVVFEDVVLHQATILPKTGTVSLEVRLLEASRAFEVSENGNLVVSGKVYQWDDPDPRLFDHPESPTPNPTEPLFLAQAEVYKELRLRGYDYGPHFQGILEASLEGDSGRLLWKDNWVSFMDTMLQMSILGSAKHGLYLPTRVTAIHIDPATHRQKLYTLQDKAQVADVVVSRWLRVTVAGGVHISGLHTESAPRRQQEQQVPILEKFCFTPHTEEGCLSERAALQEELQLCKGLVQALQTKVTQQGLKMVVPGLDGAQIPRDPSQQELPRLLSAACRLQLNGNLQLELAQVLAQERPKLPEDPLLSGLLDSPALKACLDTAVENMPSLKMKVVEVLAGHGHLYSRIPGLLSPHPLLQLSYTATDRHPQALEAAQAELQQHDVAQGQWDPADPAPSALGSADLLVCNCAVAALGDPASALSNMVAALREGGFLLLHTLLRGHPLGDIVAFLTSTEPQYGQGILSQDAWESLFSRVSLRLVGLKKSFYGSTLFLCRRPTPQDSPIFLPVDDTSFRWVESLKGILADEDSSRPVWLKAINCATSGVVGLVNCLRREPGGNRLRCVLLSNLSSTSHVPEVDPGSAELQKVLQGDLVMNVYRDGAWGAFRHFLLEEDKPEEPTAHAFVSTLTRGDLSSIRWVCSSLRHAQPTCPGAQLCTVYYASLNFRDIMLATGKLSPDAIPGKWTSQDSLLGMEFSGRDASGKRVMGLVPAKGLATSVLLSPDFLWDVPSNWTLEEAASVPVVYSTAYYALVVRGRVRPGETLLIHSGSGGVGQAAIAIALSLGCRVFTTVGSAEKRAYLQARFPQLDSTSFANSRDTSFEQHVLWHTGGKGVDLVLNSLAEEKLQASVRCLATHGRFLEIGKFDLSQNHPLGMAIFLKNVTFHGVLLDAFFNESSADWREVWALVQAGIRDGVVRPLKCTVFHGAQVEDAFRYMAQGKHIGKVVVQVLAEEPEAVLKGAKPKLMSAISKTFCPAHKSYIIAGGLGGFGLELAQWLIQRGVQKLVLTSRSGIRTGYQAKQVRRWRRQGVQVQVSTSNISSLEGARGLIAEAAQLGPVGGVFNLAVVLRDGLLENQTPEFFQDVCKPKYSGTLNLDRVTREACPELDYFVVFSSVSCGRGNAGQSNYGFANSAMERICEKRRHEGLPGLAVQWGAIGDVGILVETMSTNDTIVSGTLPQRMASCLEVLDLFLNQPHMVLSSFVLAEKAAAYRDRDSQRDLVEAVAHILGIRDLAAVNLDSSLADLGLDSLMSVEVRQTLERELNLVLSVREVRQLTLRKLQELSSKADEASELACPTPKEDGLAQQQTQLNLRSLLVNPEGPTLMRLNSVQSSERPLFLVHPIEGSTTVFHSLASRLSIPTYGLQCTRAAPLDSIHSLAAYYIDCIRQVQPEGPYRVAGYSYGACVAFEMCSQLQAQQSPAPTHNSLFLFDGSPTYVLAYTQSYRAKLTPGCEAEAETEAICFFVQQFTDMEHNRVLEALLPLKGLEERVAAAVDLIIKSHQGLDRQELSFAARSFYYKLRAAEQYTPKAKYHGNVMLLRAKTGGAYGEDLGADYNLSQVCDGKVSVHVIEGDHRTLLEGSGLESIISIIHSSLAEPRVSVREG

`O=C(C1CC1)N1CC(CN2C(=O)C3(CCNCC3)N=C2c2ccc(-c3ccc4cnccc4c3)cc2)C1` [compound 132, 3-{[1-(Cyclopropylcarbonyl)azetidin-3-yl]methyl}-2-(4-isoquinolin-6-ylphenyl)-1,3,8-triazaspiro[4.5]dec-1-en-4-one]: the inhibition (as a rule, the change of the read-out against control, counted positive when it falls) at 10 µM was 83.7% and the IC50 is 1700 nM.

Turning to `CC(C)C(=O)N1CCC2(CC1)N=C(c1ccc(-c3ccc4c(cnn4C)c3)cc1)N(CC1CN(C(=O)C3CC3)C1)C2=O` [compound 135, 3-{[1-(Cyclopropylcarbonyl)azetidin-3-yl]methyl}-2-[4-(1-methyl-1H-indazol-5-yl)phenyl]-8-(2-methylpropanoyl)-1,3,8-triazaspiro[4.5]dec-1-en-4-one], the inhibition at 10 µM was 78.9% and the IC50 is 2450 nM.

Take `CN(C)CC(=O)N1CCC2(CC1)N=C(c1ccc(-c3ccc4c(cnn4C)c3)cc1)N(CC1CN(C(=O)C3CC3)C1)C2=O` [compound 136, 3-{[1-(Cyclopropylcarbonyl)azetidin-3-yl]methyl}-8-(N,N-dimethylglycyl)-2-[4-(1-methyl-1H-indazol-5-yl)phenyl]-1,3,8-triazaspiro[4.5]dec-1-en-4-one]: the inhibition at 10 µM was found to be 77.7% and the IC50 was 2950 nM.

As to `CC(C)C(=O)N1CCC2(CC1)N=C(c1ccc(-c3ccc4c(cnn4C)c3)cc1)N(C[C@@H]1CCN(C(=O)C3CC3)C1)C2=O` [compound 139, (R)-3-((1-(cyclopropanecarbonyl)pyrrolidin-3-yl)methyl)-8-isobutyryl-2-(4-(1-methyl-1H-indazol-5-yl)phenyl)-1,3,8-triazaspiro[4.5]dec-1-en-4-one], the inhibition at 10 µM came to 112% and the IC50 was 174 nM.

As for `Cn1ncc2cc(-c3ccc(C4=NC5(CCN(C(=O)C6CC6)CC5)C(=O)N4C[C@@H]4CCN(C(=O)C5CC5)C4)cc3)ccc21` [compound 140, 8-(Cyclopropylcarbonyl)-3-{[(3R)-1-(cyclopropylcarbonyl)pyrrolidin-3-yl]methyl}-2-[4-(1-methyl-1H-indazol-5-yl)phenyl]-1,3,8-triazaspiro[4.5]dec-1-en-4-one], the inhibition at 10 µM came out at 114% and the IC50 was 224 nM.

For the compound `CN(C)CC(=O)N1CCC2(CC1)N=C(c1ccc(-c3ccc4c(cnn4C)c3)cc1)N(C[C@@H]1CCN(C(=O)C3CC3)C1)C2=O` [compound 141, 3-{[(3R)-1-(Cyclopropylcarbonyl)pyrrolidin-3-yl]methyl}-8-(N,N-dimethylglycyl)-2-[4-(1-methyl-1H-indazol-5-yl)phenyl]-1,3,8-triazaspiro[4.5]dec-1-en-4-one], the inhibition at 10 µM was 110% and the IC50 is 251 nM.

As for `CN(C)CC(=O)N1CCC2(CC1)N=C(c1ccc(-c3ccc4cnccc4c3)cc1)N(C[C@@H]1CCN(C(=O)C3CC3)C1)C2=O` [compound 142, 3-{[(3R)-1-(Cyclopropylcarbonyl)pyrrolidin-3-yl]methyl}-8-(N,N-dimethylglycyl)-2-(4-isoquinolin-6-ylphenyl)-1,3,8-triazaspiro[4.5]dec-1-en-4-one], the inhibition at 10 µM was 119% and the IC50 is 69.2 nM.

Take `CC(C)C(=O)N1CCC2(CC1)N=C(c1ccc(-c3ccc4cnccc4c3)cc1)N(C[C@@H]1CCN(C(=O)C3CC3)C1)C2=O` [compound 143, 3-{[(3R)-1-(Cyclopropylcarbonyl)pyrrolidin-3-yl]methyl}-2-(4-isoquinolin-6-ylphenyl)-8-(2-methylpropanoyl)-1,3,8-triazaspiro[4.5]dec-1-en-4-one]: the inhibition at 10 µM came to 119% and the IC50 is 36.3 nM.

Consider `CC(=O)N1CCC2(CC1)N=C(c1ccc(-c3ccc4cnccc4c3)cc1)N(C[C@@H]1CCN(C(=O)C3CC3)C1)C2=O` [compound 144, 8-Acetyl-3-{[(3R)-1-(cyclopropylcarbonyl)pyrrolidin-3-yl]methyl}-2-(4-isoquinolin-6-ylphenyl)-1,3,8-triazaspiro[4.5]dec-1-en-4-one], for which the inhibition at 10 µM turned out to be 117% and the IC50 was 63.1 nM.
